Reference: US20040019092A1, “Non-peptide somatostatin receptor ligands” (priority 2001, published 2004)
Values joined by “and” are separate entries in the source; they are usually repeats but may differ in a detail not shown here. Identical values can stand only once.

Legend:
[1] = target: T1, human sst2 receptor sub-type (Homo sapiens, UniProt P30874); assay: In vitro binding, human sst2 receptor sub-type (SSTR2); conditions: Tables 8/9: Bind SSTR2 nM
T1 construct: host or cells: SRIF receptor expressing cell cultures (general statement only)
Experimental: The in vitro binding affinities for rat cortex SRIF receptors and the human sst2 receptor sub-type was assessed. Further the in vitro inhibition of the GHRH induced GH secretion in primary cultures of rat pituitary cells as well as the in vivo inhibition of GH secretion in the rat after systemic or enteral application was studied. […] Therefore, the in vivo activities of the compounds in rats with respect to inhibition of growth hormone release was also assessed. Most compounds selected were tested by enteral—intraduodenal (i.d.) application. For determination of the absolute activity and for the calculation of an enteral bioavailability, single subcutaneous (s.c.) application of intravenous (i.v.) infusion was used.

[2] = tested on: GHRH induced GH secretion in primary cultures of rat pituitary cells; assay: In vitro inhibition of GHRH induced GH secretion (GH vitro +GHRH); assay type: cell-based
GH secretion [3] = assay: GH secretion in vivo, rat, subcutaneous application, 1 h (basal); conditions: for GH vivo s.c. 1 h ID50: rat, basal GH secretion, 1 h after subcutaneous application
Experimental: (§1) Animals, anesthesia: Male rats of a Sprague Dawley strain (Ico:OFA-SD, Iffa-Credo, F-Lyon) of 200-300 g body weight were used. They were kept under standardized conditions and were anesthetized with pentobarbital-sodium (Siegfried, CH Zofingen), 60 mg/kg i.p. for subcutaneous and intraduodenal applications. Animals designed for an infusion experiment were anesthetized with urethane (Siegfried, CH Zofingen), 1.2 g/kg i.p.
(§2) Compounds: The compounds were dissolved, optionally with the aid of one or more of the following adjuncts:
(§3) Stock solutions of the compounds were prepared in water with the addition of the necessary adjunct(s). Further dilutions were prepared allowing 5 mL/kg for subcutaneous application, 2 mL for intraduodenal (i.d.) application or 4.5 mL/kg for intravenous infusion. The solutions for the intravenous application/infusion were made isotonic by addition of glucose to a final concentration of 5%.
(§4) Applications were made, or, in the case of infusion, started, approximately 10 minutes after induction of anesthesia. No further treatment followed subcutaneous or intraduodenal application. Ten, twenty-five and fifty-five minutes after start of the intravenous infusion the GH secretion was stimulated with repeated intravenous injections of the potent GHRH analog, D-Ala2 GHRH1-29NH2, 1 μg/kg.
(§5) One hour after subcutaneous or intraduodenal application of the compounds, blood was collected from the trunk after decapitation. In the case of application by infusion, 5 minutes after each application of GHRH, a blood sample of 0.8 mL was taken from a V. jugularis and mixed with EDTA (Eppendorf tubes TOM14, Milian, CH Geneva). The blood samples were kept on ice and spun in a cooled centrifuge. The serum or plasma was separated and frozen.
(§6) Statistics: In each experiment, 4-5 animals were used per dose, with 6 to 8 animals as the control group that received the vehicle. The GH serum/plasma levels were averaged, the mean of the treated groups expressed in percent of the control group and the ID50-value for the inhibition of the secretion was determined graphically (log-probit) for each experiment. In most experiments with enteral (intraduodenal) application only 1 dose, 10 mg/kg, was given. […] Only inhibitions between 20 and 80% were considered reliable.
(§7) Two to four experiments were performed. In the case of proper dose response curves, allowing the determination of an ID50 values were averaged logarithmically. In the cases of single dose-experiments, the GH value in percent of control were averaged logarithmically and the ID50 for this value was taken from the table. ID50 values determined at the different time points during the infusion were averaged and this value was included in the tables.

GH secretion [4] = assay: GH secretion in vivo, rat, intraduodenal (enteral) application, 1 h (basal); conditions: for GH vivo i.d. 1 h ID50: basal GH secretion, 1 h after intraduodenal application, mostly approximate ID50 from single 10 mg/kg dose, Ø = no effect at this dose, > = extrapolated value; for enteral ID50 (GH secretion): enteral (intraduodenal) application
Experimental: as §1, §2, §3, §4, §5, §6, §7

[5] = tested on: GHRH stimulated GH secretion; assay: GH secretion in vivo, rat, intravenous infusion with repeated GHRH stimulation; conditions: for GH, Ur Inf15′ +GHRH / GH, UR Inf30′ +GHRH / GH, UR Inf60′ +GHRH: Tables 8/9, urethane; for GH, Ur Inf15′ +GHRH / INFUS. + GHRH ID50 15′: 15′ of infusion; for GH, UR Inf30′ +GHRH / INFUS. + GHRH ID50 30′: 30′ of infusion; for GH, UR Inf60′ +GHRH / INFUS. + GHRH ID50 60′: 60′ of infusion; for GH vivo Inf + GHRH ID50 (mean of time points): urethane, i.v. infusion, GHRH stimulated; for INFUS. + GHRH ID50 MEAN: Table 4, mean of infusion time points; for INFUS. + GHRH ID50 15′ / INFUS. + GHRH ID50 30′ / INFUS. + GHRH ID50 60′: Table 4, urethan
Experimental: as §1, §3, §4, §5, §6, §7

SS1 = SS1 (Rattus norvegicus, UniProt P30680); assay: SS-1 binding (Bind SS1 D.H.)
SSTR1 = target: T2, SSTR1 (Homo sapiens, UniProt P30872); assay: Binding SSTR1; conditions: > = extrapolated value; read-out: Bind SSTR1
T2 construct: host or cells: SRIF receptor expressing cell cultures (general statement only)

SSTR3 = target: T3, SSTR3 (Homo sapiens, UniProt P32745); assay: Binding SSTR3; conditions: > = extrapolated value; read-out: Bind SSTR3
T3 construct: host or cells: SRIF receptor expressing cell cultures (general statement only)

SSTR4 = target: T4, SSTR4 (Homo sapiens, UniProt P31391); assay: Binding SSTR4; conditions: > = extrapolated value; read-out: Bind SSTR4
T4 construct: host or cells: SRIF receptor expressing cell cultures (general statement only)

SSTR5 = target: T5, SSTR5 (Homo sapiens, UniProt P35346); assay: Binding SSTR5; conditions: read-out: Bind SSTR5
T5 construct: host or cells: SRIF receptor expressing cell cultures (general statement only)

GH secretion [6] = assay: Unanesthetized estradiol primed male rats, oral by gavage: GH; assay type: in vivo, rat; conditions: estradiol implant male rats, oral by gavage, 1 hour
Experimental: The inhibitory effect of the compounds on GH release may also be examined after oral application to male rats with oestradiol implants. This test is carried out as follows.
A loop (length 50 mmØ3 mm) of silastic with 50 mg of oestradiol is implanted under the dorsal skin of anaesthetized male OFA rats that have a weight of ca. 300 g. At various times (1 to 6 months later), these animals, in a fasted state, are used repeatedly for tests. The test substances are active in this test at doses from 0.1 to 5 mg/kg, when GH level in the blood serum is determined by radio-immunoassay 1 and 2 hours after oral administration.
(§8) Table 5 summarizes the results obtained in the estradiol primed male rats that received the compounds orally by gavage. These rats have stabilized elevated GH plasma levels as well as increased prolactin levels. In contrast to normal untreated rats, who's prolactin secretion is not sensitive to the inhibitory effect of somatostain, in these rats the prolactin secretion is inhibited to a similar degree as the GH secretion. Therefore, the inhibitory effect can be measured on 2 different parameters, GH and prolactin. The mean enteral absorption and activity of the respective compounds are shown.

prolactin secretion = assay: Unanesthetized estradiol primed male rats, oral by gavage: prolactin; assay type: in vivo, rat; conditions: estradiol implant male rats, oral by gavage, 1 hour; ø = no effect at this dose
Text: as §8

T3 sequence (P32745 whole entry, species assumed): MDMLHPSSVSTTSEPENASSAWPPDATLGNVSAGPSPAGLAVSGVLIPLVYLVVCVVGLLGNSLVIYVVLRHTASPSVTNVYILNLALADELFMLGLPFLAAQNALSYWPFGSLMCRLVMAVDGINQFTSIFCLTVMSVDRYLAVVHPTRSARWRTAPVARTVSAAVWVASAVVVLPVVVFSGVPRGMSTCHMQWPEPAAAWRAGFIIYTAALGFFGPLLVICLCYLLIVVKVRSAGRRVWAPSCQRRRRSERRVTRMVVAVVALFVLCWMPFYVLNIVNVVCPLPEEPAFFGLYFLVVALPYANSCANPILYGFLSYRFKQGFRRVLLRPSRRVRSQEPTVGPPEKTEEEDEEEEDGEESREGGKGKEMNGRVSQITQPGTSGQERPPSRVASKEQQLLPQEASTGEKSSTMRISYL
T5 sequence (P35346 whole entry, species assumed): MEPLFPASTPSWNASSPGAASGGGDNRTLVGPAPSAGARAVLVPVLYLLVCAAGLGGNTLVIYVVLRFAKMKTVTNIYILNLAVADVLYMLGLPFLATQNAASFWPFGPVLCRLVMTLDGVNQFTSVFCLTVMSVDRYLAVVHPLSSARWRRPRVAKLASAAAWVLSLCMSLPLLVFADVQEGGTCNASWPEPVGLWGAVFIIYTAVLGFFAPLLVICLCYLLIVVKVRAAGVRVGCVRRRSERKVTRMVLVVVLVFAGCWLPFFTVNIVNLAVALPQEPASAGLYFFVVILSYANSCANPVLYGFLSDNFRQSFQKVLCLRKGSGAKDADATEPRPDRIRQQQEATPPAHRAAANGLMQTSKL
T1 sequence (P30874 whole entry): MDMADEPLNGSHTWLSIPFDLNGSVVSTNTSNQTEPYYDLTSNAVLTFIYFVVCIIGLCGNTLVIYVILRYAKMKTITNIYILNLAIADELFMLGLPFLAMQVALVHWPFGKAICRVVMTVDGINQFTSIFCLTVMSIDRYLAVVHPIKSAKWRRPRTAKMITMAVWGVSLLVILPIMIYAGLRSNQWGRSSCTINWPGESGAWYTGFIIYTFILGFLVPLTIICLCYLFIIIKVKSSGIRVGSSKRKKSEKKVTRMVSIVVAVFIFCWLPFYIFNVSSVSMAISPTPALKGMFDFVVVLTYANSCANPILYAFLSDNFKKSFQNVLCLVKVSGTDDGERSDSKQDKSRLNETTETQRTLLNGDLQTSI
T4 sequence (P31391 whole entry, species assumed): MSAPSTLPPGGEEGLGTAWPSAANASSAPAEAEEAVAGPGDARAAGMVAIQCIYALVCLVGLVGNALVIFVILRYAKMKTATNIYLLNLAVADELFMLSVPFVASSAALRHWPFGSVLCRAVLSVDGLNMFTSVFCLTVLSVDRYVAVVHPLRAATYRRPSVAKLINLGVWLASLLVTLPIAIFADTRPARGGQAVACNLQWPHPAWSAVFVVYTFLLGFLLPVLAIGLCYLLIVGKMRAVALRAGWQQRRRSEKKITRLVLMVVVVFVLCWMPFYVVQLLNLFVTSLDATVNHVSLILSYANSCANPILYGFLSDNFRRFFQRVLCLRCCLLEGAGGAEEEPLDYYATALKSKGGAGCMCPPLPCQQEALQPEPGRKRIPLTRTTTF
SS1, sequence (P30680 whole entry): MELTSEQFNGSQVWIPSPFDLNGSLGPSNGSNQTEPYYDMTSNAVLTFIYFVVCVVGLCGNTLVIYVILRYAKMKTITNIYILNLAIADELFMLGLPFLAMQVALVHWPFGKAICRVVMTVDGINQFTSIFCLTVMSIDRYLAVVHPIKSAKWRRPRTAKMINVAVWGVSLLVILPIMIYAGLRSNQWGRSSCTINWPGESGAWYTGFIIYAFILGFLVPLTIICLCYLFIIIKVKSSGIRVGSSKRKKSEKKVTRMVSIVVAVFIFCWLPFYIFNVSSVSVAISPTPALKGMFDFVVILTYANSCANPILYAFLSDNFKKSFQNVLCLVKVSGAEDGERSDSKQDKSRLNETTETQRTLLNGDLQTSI
T2 sequence (P30872 whole entry, species assumed): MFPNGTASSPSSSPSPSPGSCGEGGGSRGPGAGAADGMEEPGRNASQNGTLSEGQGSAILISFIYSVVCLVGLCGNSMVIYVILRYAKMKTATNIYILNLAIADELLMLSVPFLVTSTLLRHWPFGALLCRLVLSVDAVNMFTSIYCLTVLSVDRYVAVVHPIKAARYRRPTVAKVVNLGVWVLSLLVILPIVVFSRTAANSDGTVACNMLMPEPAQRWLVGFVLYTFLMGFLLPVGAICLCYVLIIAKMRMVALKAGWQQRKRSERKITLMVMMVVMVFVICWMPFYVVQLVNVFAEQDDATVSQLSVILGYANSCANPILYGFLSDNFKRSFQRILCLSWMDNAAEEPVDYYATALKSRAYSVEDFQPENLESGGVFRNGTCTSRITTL

Row | IC50 [1] [nM] | IC50 [2] [nM] | Bind SS1 D.H. (SS1) [nM] | IC50 (SSTR1) [nM] | IC50 (SSTR3) [nM] | IC50 (SSTR4) [nM] | IC50 (SSTR5) [nM] | SMILES | GH vivo s.c. 1 h ID50 (GH secretion [3]) [mg/kg] | GH vivo i.d. 1 h ID50 (GH secretion [4]) | GH, Ur Inf15′ +GHRH [5] | GH, UR Inf30′ +GHRH [5] [µg/kg/h] | GH, UR Inf60′ +GHRH [5] [µg/kg/h] | GH vivo Inf + GHRH ID50 (mean of time points) [5] [µg/kg/h] | enteral ID50 (GH secretion) (GH secretion [4]) [mg/kg] | INFUS. + GHRH ID50 MEAN [5] [mg/kg] | INFUS. + GHRH ID50 15′ [5] [mg/kg] | INFUS. + GHRH ID50 30′ [5] [mg/kg] | INFUS. + GHRH ID50 60′ [5] [mg/kg] | GH 1 H ID50 (GH secretion [6]) [mg/kg] | MEAN ID50 (GH and prolactin) (GH secretion [6]) [mg/kg] | other results
1 | 44 | 255 | – | 50000 | 2800 | 5300 | 1400 | N#Cc1cc(S(=O)(=O)N2C(=O)N(CCCCCN)C(=O)C2Cc2c[nH]c3ccccc23)ccc1Oc1ccc(N)cc1 (stereo not shown) [Compound 42] | – | Ø10000 μg/kg | 856.000 µg/kg/h | 434.000 | 425.000 | 540.000 | – | – | – | – | – | – | – | –
2 | 2.7 | 1.7 | 1.00 | > 1000 | > 1000 | > 1000 | 170 | Cc1cccc2c(CC3C(=O)N(CCCCCN)C(=O)N3S(=O)(=O)c3ccc(Oc4ccc(O)c(Cl)c4)c(C#N)c3)c[nH]c12 (stereo not shown) [Compound 44] | 0.258 | 9.721 mg/kg | 50 µg/kg/h | 30 | 21 | – | 9.7 | 0.0432 | 0.0724 | 0.041 | 0.0271 | 16 | 16 | GH vivo s.c. 1 h ID50 (GH secretion [3]; listed as 44 ch): 0.258 mg/kg; GH vivo Inf + GHRH ID50 (mean of time points) ([5]; listed as 44 ch): 43.00 µg/kg/h and 32 µg/kg/h; PROLACT 1 H ID50 (prolactin secretion): ø10000 μg/kg
3 | 3 | 5.1 | 1.00 | 1400 | 220 | > 1000 | 97 | Cc1cccc2c(CC3C(=O)N(CCCCCN)C(=O)N3S(=O)(=O)c3ccc(Oc4ccc(O)cc4)c(CN)c3)c[nH]c12 (stereo not shown) [Compound 45] | 0.048 | 11.4 mg/kg | 34.000 µg/kg/h | 30.000 | 30.000 | – | 11.4 | 0.03105 | 0.034 | 0.03 | 0.031 | 8 | 11.313 | GH vivo s.c. 1 h ID50 (GH secretion [3]; listed as 45 ch): 0.048 mg/kg; GH vivo s.c. 1 h ID50 (GH secretion [3]; listed as 45 dch): 0.048 mg/kg; enteral bioavailability (from ID50 ratio) (GH secretion [4]; intraduodenal 1 hour vs parenteral ID50): =0/42%; GH vivo Inf + GHRH ID50 (mean of time points) ([5]; listed as 45 ch): 30.000 µg/kg/h; GH vivo Inf + GHRH ID50 (mean of time points) ([5]; listed as 45 dch): 31.05 µg/kg/h and 30.000 µg/kg/h; PROLACT 1 H ID50 (prolactin secretion): 16 mg/kg

Row | SMILES | IC50 [1] [nM] | IC50 [2] [nM] | Bind SS1 D.H. (SS1) [nM] | IC50 (SSTR1) [nM] | IC50 (SSTR3) [nM] | IC50 (SSTR4) [nM] | IC50 (SSTR5) [nM] | GH vivo s.c. 1 h ID50 (GH secretion [3]) [mg/kg] | GH vivo i.d. 1 h ID50 (GH secretion [4]) | GH, Ur Inf15′ +GHRH [5] | GH, UR Inf30′ +GHRH [5] [µg/kg/h] | GH, UR Inf60′ +GHRH [5] [µg/kg/h] | GH vivo Inf + GHRH ID50 (mean of time points) [5] [µg/kg/h] | enteral ID50 (GH secretion) (GH secretion [4]) [mg/kg] | INFUS. + GHRH ID50 MEAN [5] [mg/kg] | INFUS. + GHRH ID50 15′ [5] [mg/kg] | INFUS. + GHRH ID50 30′ [5] [mg/kg] | INFUS. + GHRH ID50 60′ [5] [mg/kg] | GH 1 H ID50 (GH secretion [6]) [mg/kg] | MEAN ID50 (GH and prolactin) (GH secretion [6]) [mg/kg] | other results
4 | Cc1cccc2c(CC3C(=O)N(CCCCCN)C(=O)N3S(=O)(=O)c3ccc(Oc4ccc(O)cc4)c(C#N)c3)c[nH]c12 (stereo not shown) [Compound 14] | 5.7 | 11 | 2.50 | > 1000 | 300 | > 1000 | 450 | 1.16 | >30 mg/kg | ˜44 μg/kg/h | 11.000 | 14.000 | 19.000 | – | – | – | – | – | – | – | EC50 for inhibition of GH release, subcutaneous (GH secretion [3]; applied subcutaneous): ~1 mg/kg; SS-1 binding pKd (SS1): 8.56
